Data: paper PMC10218007, “Potential Clinically Relevant Effects of Sialylation on Human Serum AAG-Drug Interactions Assessed by Isothermal Titration Calorimetry: Insight into Pharmacoglycomics?” (International Journal of Molecular Sciences, 2023)
Structures can show the parent of a compound that is named as a salt.

Legend:
[1] = ref 46 lidocaine, 47 diltiazem, 48 clindamycin, 49 warfarin, cited from earlier work; for Cmax: usual therapeutic peak plasma level
[2] = cited from earlier work; for pKa: ref (5) lidocaine and diltiazem, (6) clindamycin, (7) warfarin
[3] = biological target: Native human AAG (AAG + s) (Homo sapiens, UniProt P02763); assay: ITC titration of native AAG (AAG + s) with drugs; format: binding; conditions: 310 K
Method: (§1) All chemicals were used without further purification. Immobilized SialEXO® (derived from Akkermansia muciniphilla and expressed in E. Coli) was obtained from Smart Enzymes™ Genovis (Lund, Sweden), and HEPES buffer was obtained from VWR International (Leuven, Belgium). All other reagents were of analytical grade or better. All solutions were prepared immediately before the experiments in order to minimize contamination and/or impair the stability of solutions. The solutions for microcalorimetric titrations were prepared in 25 mM HEPES at pH 7.40 containing 150 mM NaCl (Kemika, Zagreb, Croatia), using doubly distilled water and 5 M NaOH (Kemika, Zagreb, Croatia) for adjusting the pH value. AAG and drug solutions were prepared by dissolving the appropriate amount of solid in the given solvent.
The ITC titrations were performed on a MicroCal PEAQ–ITC calorimeter (Malvern Panalytical Ltd., Malvern, UK). The solutions were thoroughly degassed beforehand, under vacuum to avoid any formation of bubbles that might be present in the sample cell. All microcalorimetric measurements were performed at 37 °C. The volume of the sample cell was approximately 200 μ L and the volume of the burette (syringe) was 42 μ L. Each titration was performed in duplicate or triplicate. Blank experiments were performed to estimate corrections for the dilution heat.
AAG solution (100 – 200 μ M) was loaded into the sample cell using a calibrated syringe (1 mL Hamilton) and titrated with 1 – 2 mM drug solutions. The sample cell was continuously stirred at 700 rpm. Differential power (DP) is arbitrarily applied to each titration. The interval between successive injections was 200 s, which is long enough for the signal to return to its baseline and to ensure equilibrium after each addition. Double distilled water was present in the reference cell during all experiments. To correct for the thermal effect, control titrations were performed for drug solution in buffer under the same conditions as the AAG–drug titrations and dilution heat was subtracted from the AAG–drug titration data.
(§2) All ITC data were analyzed with MicroCal PEAQ-ITC Analysis Software 1.30 using the One Set Sites Fitting Model. […] All p values were calculated using the t-test() function in Microsoft Excel (Microsoft Corporation, Redmond, WA, USA).

[4] = tested on: AAG + s or AAG − s; conditions: calculated; for Decrease of free drug concentration, AAG − s vs AAG + s, in the presence of HSA: with 0.64 mM HSA, depending on the conditions
Source text: AAG is an acute-phase protein with variable concentration in plasma and this consequently affects the free drug concentration. Hyperquad simulation and speciation software (HySS 4.0.31) was used to calculate the fraction of free vs. bound drug by solving the mass balance equations using the measured binding affinities. […] The plasma concentrations of the drug vary over time depending on the dosing regimen, and steady–state concentrations were used in the model.
In addition to AAG, human serum albumin (HSA) also plays a critical role in drug binding due to its high plasma concentration. Therefore, to obtain more realistic estimates, the free drug concentration was calculated taking into account the available data on the binding of the studied drugs to HSA.

[5] = biological target: Desialylated human AAG (AAG − s) (Homo sapiens, UniProt P02763); assay: ITC titration of desialylated AAG (AAG − s) with drugs; format: binding; conditions: 310 K
Method: as §1
The ITC titrations were performed on a MicroCal PEAQ–ITC calorimeter (Malvern Panalytical Ltd., Malvern, UK). The solutions were thoroughly degassed beforehand, under vacuum to avoid any formation of bubbles that might be present in the sample cell. All microcalorimetric measurements were performed at 37 °C. […]
as §2

[6] = biological target: AAG+s; conditions: log Ka = log (1/KD), KD in M; ref (2) lidocaine, (3) warfarin, (4) clindamycin; cited from earlier work

Chain of Native human AAG (AAG + s) (P02763 19-201): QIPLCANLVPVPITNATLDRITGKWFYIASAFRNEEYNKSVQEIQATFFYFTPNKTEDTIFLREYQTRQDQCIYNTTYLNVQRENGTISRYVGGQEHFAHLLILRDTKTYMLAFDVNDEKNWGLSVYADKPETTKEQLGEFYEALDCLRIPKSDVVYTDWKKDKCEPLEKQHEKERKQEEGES
Chain of Desialylated human AAG (AAG − s) (P02763 19-201): as above

Row | Decrease of free plasma concentration with AAG − s vs AAG + s ([4]; AAG only, no HSA) | Compound | Cmax [1] | pKa [2] | N (number of drug binding sites), AAG + s [3] | Δr S°, AAG + s [3] | N (number of drug binding sites), AAG − s [5] | Ctrough ([1]; usual therapeutic trough plasma level) | Decrease of free drug concentration, AAG − s vs AAG + s, in the presence of HSA [4] | Reference AAG+s log KA [6] | Fraction present in protonated form ([2]; at the measured pH (7.40))
1 | 20–30% | COc1ccc([C@@H]2Sc3ccccc3N(CCN(C)C)C(=O)[C@@H]2OC(C)=O)cc1 [Diltiazem, diltiazem hydrochloride] | 0.44 µM | 8.03 | 0.804 ± 0.238 | 7.80 ± 1.74 J K^−1 mol^−1 | 0.868 ± 0.0290 | – | – | – | –
2 | – | CCN(CC)CC(=O)Nc1c(C)cccc1C [Lidocaine, lidocaine] | – | – | – | – | – | 6.40 µM | 10% to 40 | – | –
3 | – | CC(=O)CC(c1ccccc1)c1c(O)c2ccccc2oc1=O (stereo not shown) [Warfarin, Warfarin sodium salt] | 9.08 µM | 4.99 | 0.654 ± 0.117 | −191± 5.42 J K^−1 mol^−1 | 0.795 ± 0.0290 | – | 10% to 40 | 5.34 | –
4 | – | clindamycin phosphate | – | – | – | – | – | – | – | – | about 30%
